Consider 5 compounds from patent US9603364B2 (Dow AgroSciences LLC, priority 2013, dated 2017).

Where only a bound is given, the exact number is not on record here.

Holding throughout (assay): General post-emergent herbicidal activity, foliar application
What all share (assay type): in vivo

Test [1] has as its system Zea mays L. (corn). The conditions noted are these: 336 h, scored after 14 days, read-out: % Visual Growth Reduction ZEAMX; for plant injury at 280 g/ha: 280 g ai/ha; for plant injury at 140 g/ha: 140 g ai/ha; for plant injury at 35 g/ha: 35 g ai/ha; for plant injury at 70 g/ha: 70 g ai/ha. The essentials:
(§1)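 Injury rated visually 14 days after treatment on a 0 (none) to 100% (complete kill) scale against untreated plants; greenhouse-grown, sub-irrigated to avoid wash-off. Foliar spray in aqueous acetone/DMSO with isopropanol, crop oil concentrate and Triton X-155, at a highest rate and 2-fold serial dilutions down to 1/16×.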

In test [2] the test system is Oryza sativa L. (rice). The note with it: Oryza sativa, 336 h, scored after 14 days, read-out: % Visual Growth Reduction ORYSA; for plant injury at 280 g/ha: 280 g ai/ha; for plant injury at 140 g/ha: 140 g ai/ha; for plant injury at 35 g/ha: 35 g ai/ha; for plant injury at 70 g/ha: 70 g ai/ha. A digest of the protocol: as §1
Test [3] has as its system Chenopodium album L. (lambsquarters, common). The note with it: for pest or weed control at 280 g/ha: 280 g ai/ha; for pest or weed control at 140 g/ha: 140 g ai/ha; for pest or weed control at 35 g/ha: 35 g ai/ha; for pest or weed control at 70 g/ha: 70 g ai/ha; for GR80 Value CHEAL: calculated by probit analysis, dose for 80% visual injury, may be extrapolated. The essentials: (§2)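 Compounds in acetone/DMSO (97:3) were diluted into aqueous spray containing isopropyl alcohol, Atplus 411F crop oil and Triton X-155, then applied post-emergence to foliage at a top rate plus 1/2× to 1/16× serial dilutions. Injury was scored visually (0–100%) after 14 days in a sub-irrigated greenhouse versus untreated plants. GR20/GR50/GR80 were derived by probit analysis, with some GR80 values extrapolated from curve slope.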

The subject of test [4] is Helianthus annuus L. (sunflower, common). The conditions noted are these: for pest or weed control at 280 g/ha: 280 g ai/ha; for pest or weed control at 140 g/ha: 140 g ai/ha; for pest or weed control at 35 g/ha: 35 g ai/ha; for pest or weed control at 70 g/ha: 70 g ai/ha; for GR80 Value HELAN: calculated by probit analysis, dose for 80% visual injury, may be extrapolated. The essentials: as §2

Test [5] deals with Euphorbia heterophylla L. (poinsettia, wild). The note with it: for pest or weed control at 280 g/ha: 280 g ai/ha; for pest or weed control at 140 g/ha: 140 g ai/ha; for pest or weed control at 35 g/ha: 35 g ai/ha; for pest or weed control at 70 g/ha: 70 g ai/ha; for GR80 Value EPHHL: calculated by probit analysis, dose for 80% visual injury, may be extrapolated. A digest of the protocol: as §2

Test [6] has as its system Amaranthus retroflexus L. (pigweed, redroot). The note with it: for pest or weed control at 280 g/ha: 280 g ai/ha; for pest or weed control at 140 g/ha: 140 g ai/ha; for pest or weed control at 35 g/ha: 35 g ai/ha; for pest or weed control at 70 g/ha: 70 g ai/ha; for GR80 Value AMARE: calculated by probit analysis, dose for 80% visual injury, may be extrapolated. The essentials: as §2

The test system of test [7] is Echinochloa crus-galli (L.) Beauv. (barnyardgrass). The note with it: for pest or weed control at 280 g/ha: 280 g ai/ha; for pest or weed control at 140 g/ha: 140 g ai/ha; for pest or weed control at 35 g/ha: 35 g ai/ha; for pest or weed control at 70 g/ha: 70 g ai/ha; for GR80 Value ECHCG: calculated by probit analysis, dose for 80% visual injury, may be extrapolated. The essentials: as §2

Test [8] deals with Viola tricolor L. (pansy). The conditions noted are these: for pest or weed control at 280 g/ha: 280 g ai/ha; for pest or weed control at 140 g/ha: 140 g ai/ha; for pest or weed control at 35 g/ha: 35 g ai/ha; for pest or weed control at 70 g/ha: 70 g ai/ha; for GR80 Value VIOTR: calculated by probit analysis, dose for 80% visual injury, may be extrapolated. The essentials:
as §2

Setting [9] is: Chenopodium album, 336 h, foliar post-emergent, scored after 14 days, read-out: % Visual Growth Reduction CHEAL.
[10] abbreviates: Helianthus annuus, 336 h, foliar post-emergent, scored after 14 days, read-out: % Visual Growth Reduction HELAN.
Where [11] appears, read: Euphorbia heterophylla, 336 h, foliar post-emergent, scored after 14 days, read-out: % Visual Growth Reduction EPHHL.
Setting [12] is: Amaranthus retroflexus, 336 h, foliar post-emergent, scored after 14 days, read-out: % Visual Growth Reduction AMARE.
Where [13] appears, read: Echinochloa crus-galli, 336 h, foliar post-emergent, scored after 14 days, read-out: % Visual Growth Reduction ECHCG.
Setting [14] is: Viola tricolor, 336 h, foliar post-emergent, scored after 14 days, read-out: % Visual Growth Reduction VIOTR.

With `COC(=O)c1nc(C(Br)CBr)cc(N)c1Cl` (stereo not shown) [Compound F34, methyl 4-amino-3-chloro-6-(1,2-dibromoethyl)picolinate], the plant injury at 264 g/ha in test [1] (264 g ai/ha) and in test [2] (264 g ai/ha) was 0% in each case. Besides, the pest or weed control at 264 g/ha is 60% in test [3] (Chenopodium album, 336 h, 264 g ai/ha, foliar post-emergent, scored after 14 days, read-out: % Visual Growth Reduction CHEAL); 80% in test [4] (Helianthus annuus, 336 h, 264 g ai/ha, foliar post-emergent, scored after 14 days, read-out: % Visual Growth Reduction HELAN); 10% in test [5] (Euphorbia heterophylla, 336 h, 264 g ai/ha, foliar post-emergent, scored after 14 days, read-out: % Visual Growth Reduction EPHHL); 0% in test [6] (Amaranthus retroflexus, 336 h, 264 g ai/ha, foliar post-emergent, scored after 14 days, read-out: % Visual Growth Reduction AMARE); 0% in test [7] (Echinochloa crus-galli, 336 h, 264 g ai/ha, foliar post-emergent, scored after 14 days, read-out: % Visual Growth Reduction ECHCG); 0% in test [8] (Viola tricolor, 336 h, 264 g ai/ha, foliar post-emergent, scored after 14 days, read-out: % Visual Growth Reduction VIOTR).
As to `COC(=O)c1nc(CCl)cc(N)c1Cl` [Compound F35, methyl 4-amino-3-chloro-6-(chloromethyl)picolinate], the plant injury at 280 g/ha in test [1] and in test [2] was 0% in each case. Moreover, the pest or weed control at 280 g/ha in test [3] (setting [9]), in test [4] (setting [10]), in test [5] (setting [11]), in test [6] (setting [12]), in test [7] (setting [13]) and in test [8] (setting [14]) was 0% in each case.
With `COC(=O)c1nc(C(F)=C(F)F)cc(N)c1Cl` [Compound F17], the plant injury at 140 g/ha in test [1] and in test [2] was 0% in each case. The pest or weed control at 140 g/ha in test [3] (setting [9]) came out at 0%; in test [4] (setting [10]), 60%; in test [5] (setting [11]), 0%; in test [6] (setting [12]), 0%; in test [7] (setting [13]), 0%; in test [8] (setting [14]), 0%.
On to `Nc1c(F)c(CF)nc(C(=O)O)c1Cl` [Compound F36, 4-Amino-3-chloro-5-fluoro-6-(fluoromethyl)picolinic acid], for which, in test [1], the plant injury at 35 g/ha turned out to be 0%, the plant injury at 70 g/ha is 20%, the plant injury at 140 g/ha was 40% and the plant injury at 280 g/ha turned out to be 70%. In test [2], the plant injury at 35 g/ha was 0%, the plant injury at 70 g/ha was 10%, the plant injury at 140 g/ha is 20% and the plant injury at 280 g/ha came to 30%. In test [3] (setting [9]), the pest or weed control at 35 g/ha came out at 80%, the pest or weed control at 70 g/ha was found to be 100%, the pest or weed control at 140 g/ha was 100% and the pest or weed control at 280 g/ha was found to be 100%. For the same compound, the “GR80 Value CHEAL” value in test [3] is recorded as 36.1 g ai/ha. Besides, in test [4] (setting [10]), the pest or weed control at 35 g/ha was 70%, the pest or weed control at 70 g/ha was 80%, the pest or weed control at 140 g/ha worked out at 85% and the pest or weed control at 280 g/ha is 90%. In test [4], the “GR80 Value HELAN” value is reported as 70 g ai/ha. Further, in test [5] (setting [11]), the pest or weed control at 35 g/ha came out at 100%, the pest or weed control at 70 g/ha turned out to be 100%, the pest or weed control at 140 g/ha turned out to be 100% and the pest or weed control at 280 g/ha is 100%. In addition, in test [5], the “GR80 Value EPHHL” value is below 17.5 g ai/ha. In test [6] (setting [12]), the pest or weed control at 35 g/ha was 100%, the pest or weed control at 70 g/ha stood at 100%, the pest or weed control at 140 g/ha was determined as 100% and the pest or weed control at 280 g/ha amounted to 100%. In test [6], the “GR80 Value AMARE” value was below 17.5 g ai/ha. For the same compound, in test [7] (setting [13]), the pest or weed control at 35 g/ha was determined as 50%, the pest or weed control at 70 g/ha was 50%, the pest or weed control at 140 g/ha was found to be 80% and the pest or weed control at 280 g/ha is 95%. Further, the “GR80 Value ECHCG” value in test [7] is given as 132 g ai/ha. In test [8] (setting [14]), the pest or weed control at 35 g/ha is 10%, the pest or weed control at 70 g/ha stood at 20%, the pest or weed control at 140 g/ha is 80% and the pest or weed control at 280 g/ha was 75%. Further, the “GR80 Value VIOTR” value in test [8] is recorded as 246 g ai/ha.
For `CC(F)c1cc(N)c(Cl)c(C(=O)O)n1` (stereo not shown) [Compound F24, 4-Amino-3-chloro-6-(1-fluoroethyl)picolinic acid], in test [1], the plant injury at 35 g/ha worked out at 0%, the plant injury at 70 g/ha was determined as 0%, the plant injury at 140 g/ha was found to be 0% and the plant injury at 280 g/ha worked out at 10%. Besides, in test [2], the plant injury at 35 g/ha amounted to 0%, the plant injury at 70 g/ha was found to be 0%, the plant injury at 140 g/ha came to 0% and the plant injury at 280 g/ha came to 10%. Further, in test [3] (setting [9]), the pest or weed control at 35 g/ha was determined as 100%, the pest or weed control at 70 g/ha stood at 100%, the pest or weed control at 140 g/ha stood at 100% and the pest or weed control at 280 g/ha is 100%. Further, the “GR80 Value CHEAL” value in test [3] is below 17.5 g ai/ha. Also, in test [4] (setting [10]), the pest or weed control at 35 g/ha turned out to be 50%, the pest or weed control at 70 g/ha is 65%, the pest or weed control at 140 g/ha stood at 75% and the pest or weed control at 280 g/ha came to 80%. In addition, the “GR80 Value HELAN” value in test [4] is on record as 199 g ai/ha. Moreover, in test [5] (setting [11]), the pest or weed control at 35 g/ha was 5%, the pest or weed control at 70 g/ha is 80%, the pest or weed control at 140 g/ha turned out to be 90% and the pest or weed control at 280 g/ha turned out to be 95%. In test [5], the “GR80 Value EPHHL” value is reported as 122 g ai/ha. Further, in test [6] (setting [12]), the pest or weed control at 35 g/ha was determined as 90%, the pest or weed control at 70 g/ha amounted to 100%, the pest or weed control at 140 g/ha stood at 100% and the pest or weed control at 280 g/ha turned out to be 100%. In addition, the “GR80 Value AMARE” value in test [6] is given as 12.3 g ai/ha. In test [7] (setting [13]), the pest or weed control at 35 g/ha came out at 0%, the pest or weed control at 70 g/ha was found to be 55%, the pest or weed control at 140 g/ha turned out to be 80% and the pest or weed control at 280 g/ha is 90%. Moreover, the “GR80 Value ECHCG” value in test [7] is 165 g ai/ha. Besides, in test [8] (setting [14]), the pest or weed control at 35 g/ha is 85%, the pest or weed control at 70 g/ha is 100%, the pest or weed control at 140 g/ha worked out at 100% and the pest or weed control at 280 g/ha was found to be 100%. The “GR80 Value VIOTR” value in test [8] was 36.7 g ai/ha.
